The text below walks through data of US12221426B2, “Inhibitory material against human body-derived nicotinamide adenine dinucleotide phosphate-dependent steroid dehydrogenase-like, and anticancer agent comprising same as effective ingredient or pharmaceutical composition comprising same as effective ingredient for treatment of hyperlipidemia” (SEOUL NATIONAL UNIVERSITY R&DB FOUNDATION, priority 2018, dated 2025).

The term IC50 denotes the concentration that gives 50% inhibition.

The target in the assay is Human-derived nicotinamide adenine dinucleotide phosphate-dependent steroid dehydrogenase (NSDHL) (Homo sapiens (Human), UniProt Q15738). Description: NSDHL inhibitory activity evaluation: decrease of NADH fluorescence amplification when inhibitor releases NADH from NSDHL. Type of assay: binding. The settings on record: recombinant NSDHL (16 μM, 50 μl) + NADH (50 μM, 50 μl), room temperature 10 min, Ex 340 nm/Em 460 nm, 96-well plate. The method, then: In order to evaluate the nicotinamide adenine dinucleotide phosphate-dependent steroid dehydrogenase (NSDHL) inhibitory activity of the compound provided in one aspect of the present invention, the following experiment was performed.
Sequence of Human-derived nicotinamide adenine dinucleotide phosphate-dependent steroid dehydrogenase (NSDHL) (Q15738 whole entry): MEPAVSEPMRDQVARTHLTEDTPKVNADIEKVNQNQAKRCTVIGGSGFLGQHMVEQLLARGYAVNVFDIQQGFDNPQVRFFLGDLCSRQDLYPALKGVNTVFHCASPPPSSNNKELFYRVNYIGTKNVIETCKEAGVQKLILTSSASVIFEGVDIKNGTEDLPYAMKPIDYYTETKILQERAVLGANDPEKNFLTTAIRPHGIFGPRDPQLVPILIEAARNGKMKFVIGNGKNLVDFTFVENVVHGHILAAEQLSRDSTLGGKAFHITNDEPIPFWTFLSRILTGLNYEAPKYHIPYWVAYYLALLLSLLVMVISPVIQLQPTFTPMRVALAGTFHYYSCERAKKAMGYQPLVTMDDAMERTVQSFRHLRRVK
Human-derived nicotinamide adenine dinucleotide phosphate-dependent steroid dehydrogenase (NADP-dependent steroid dehydrogenase-like; NSDHL) was expressed in large quantities in E. coli. The NSDHL gene was inserted into pET21a plasmid, which was cloned into E. coli C41 (DE3). After culturing E. coli in Luria Broth medium at 37° C., IPTG was added thereto at the time when OD600 was about 0.7 to express NSDHL, followed by culture at 37° C. for 4 hours.
The cultured E. coli was centrifuged, and the cells were stored at −80° C. The cells were crushed by sonification, which was first purified using IMAC (Immobilized metallo-affinity chromatography), and then finally purified using SEC (Size exclusion chromatography). The composition of the buffer solution for storing NSDHL was as follows: 40 mM HEPES (pH 8.0), 150 mM NaCl, and 0.5 mM TCEP.
When dehydrogenase binds to NADH, fluorescence intensity is amplified compared to NADH alone. In other words, if the dehydrogenase, NSDHL, is treated with an inhibitor in a state in which it is bound to NADH, the fluorescence intensity will be reduced because NADH is released. FIG. 1 is a graph showing the results of measuring the fluorescence intensity of NADH according to the concentration of NSDHL.
In addition, it was also confirmed in FIG. 2 that an experiment for inhibiting was possible using NAD+, which is an oxidized form of NADH, but is not measured in the fluorescence measurement range of NADH. FIG. 2 is a graph showing the results of an experiment for inhibiting NSDHL and NADH conjugate using NAD+.
An activity assay was performed using a 96-well plate, and an experiment was performed after adding an inhibitor to each well at the final concentrations of 200 μM≤1 μM. Particularly, 50 μl of 16 μM NSDHL, 50 mM HEPES, 20% glycerol were added to each well, and then 50 ul of 50 μM NADH was added to each well, followed by reaction at room temperature for 10 minutes. The fluorescence level of each well was measured using SpectraMax M5 (Molecular Devices) equipment (Ex: 340 nm, Em: 460 nm). The values were corrected by separately measuring the absorbance of the compound and the buffer solution, and the degree of inhibition of each compound against NSDHL was measured based on the NADH fluorescence at the same concentration without binding. IC50 (inhibitory concentration at 50%) was calculated using GraphPad Prism software.
As to `O=C(O)CN1C(=O)/C(=C/c2cn(-c3ccc(F)cc3)nc2-c2cccc(Cl)c2)SC1=S` [Example 2, (Z)-2-(5-((3-(3-chlorophenyl)-1-(4-fluorophenyl)-1H-pyrazole-4-yl)methylene)-4-oxo-2-thioxothiazolidin-3-yl)acetic acid], the IC50 was determined as 12.8 µM. Turning to `O=C(O)CN1C(=O)/C(=C/c2cc(-c3ccc(F)cc3)ccc2OCc2ccc(C(=O)O)cc2)SC1=S` [Example 1, (Z)-4-((3-((3-(carboxymethyl)-4-oxo-2-thioxothiazolidin-5-ylidene)methyl)-4′-fluorobiphenyl-4-yloxy)methyl)benzoic acid], the IC50 turned out to be 10.4 µM. For the compound `O=C(O)CN1C(=O)/C(=C/c2ccc(O)cc2OCc2ccccc2Br)SC1=S` [Example 4, (Z)-2-(5-(2-(2-bromobenzyloxy)-4-hydroxybenzylidene)-4-oxo-2-thioxothiazolidin-3-yl)acetic acid], the IC50 came to 17.8 µM.

Regarding `O=C(O)CN1C(=O)/C(=C/c2cc(Br)ccc2OCc2ccccc2I)SC1=S` [Example 5, (Z)-2-(5-(5-bromo-2-(2-iodobenzyloxy)benzylidene)-4-oxo-2-thioxothiazolidin-3-yl)acetic acid], the IC50 is 27.1 µM. Then `COc1cccc(OCc2ccccc2)c1/C=C1\SC(=S)N(CC(=O)O)C1=O` [Example 3, (Z)-2-(5-(2-(benzyloxy)-6-methoxybenzylidene)-4-oxo-2-thioxothiazolidin-3-yl)acetic acid], with 19.9 µM.
